Results as given in the supplement of paper PMC10307832.

How the values were obtained:
Assay in all cases: relative viability (nuclei count vs DMSO), 5 days (fraction); higher = more cells survive
Afatinib + Linsitinib = compound: CN(C)C/C=C/C(=O)Nc1cc2c(Nc3ccc(F)c(Cl)c3)ncnc2cc1O[C@H]1CCOC1 [Afatinib] + C[C@]1(O)C[C@@H](c2nc(-c3ccc4ccc(-c5ccccc5)nc4c3)c3c(N)nccn32)C1 [Linsitinib] (partner 1 µM)
Procedure, shortened: (§1)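 Lung cancer cell lines, seeded in 1536-well plates, were treated the following day by pin tool with a single drug or with five library-drug doses (not always all listed) in √10 steps on top of a fixed anchor-drug dose. Cells were fixed and nuclei stained in one step after 5 days, and nuclei were counted. Relative viability is the nuclei count for treated wells divided by that for vehicle wells, reported as medians of duplicate plates.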

Afatinib + Pemetrexed = compound: CN(C)C/C=C/C(=O)Nc1cc2c(Nc3ccc(F)c(Cl)c3)ncnc2cc1O[C@H]1CCOC1 [Afatinib] + Nc1nc2[nH]cc(CCc3ccc(C(=O)N[C@@H](CCC(=O)O)C(=O)O)cc3)c2c(=O)[nH]1 [Pemetrexed] (partner 0.2 µM)
Procedure, shortened: as §1

Afatinib + Vorinostat = compound: CN(C)C/C=C/C(=O)Nc1cc2c(Nc3ccc(F)c(Cl)c3)ncnc2cc1O[C@H]1CCOC1 [Afatinib] + O=C(CCCCCCC(=O)Nc1ccccc1)NO [Vorinostat] (partner 1 µM)
Procedure, shortened: as §1

Afatinib + Olaparib = compound: CN(C)C/C=C/C(=O)Nc1cc2c(Nc3ccc(F)c(Cl)c3)ncnc2cc1O[C@H]1CCOC1 [Afatinib] + O=C(c1cc(Cc2n[nH]c(=O)c3ccccc23)ccc1F)N1CCN(C(=O)C2CC2)CC1 [Olaparib] (partner 8 µM)
Procedure, shortened: as §1

Cell Line | relative viability (Afatinib + Linsitinib; first compound 0.005 µM) | relative viability (Afatinib + Linsitinib; first compound 0.01581 µM) | relative viability (Afatinib + Linsitinib; first compound 0.05 µM) | relative viability (Afatinib + Linsitinib; first compound 0.1581 µM) | relative viability (Afatinib + Linsitinib; first compound 0.5 µM) | relative viability (Afatinib + Pemetrexed; first compound 0.005 µM) | relative viability (Afatinib + Pemetrexed; first compound 0.01581 µM) | relative viability (Afatinib + Pemetrexed; first compound 0.05 µM) | relative viability (Afatinib + Pemetrexed; first compound 0.1581 µM) | relative viability (Afatinib + Pemetrexed; first compound 0.5 µM) | relative viability (Afatinib + Vorinostat; first compound 0.005 µM) | relative viability (Afatinib + Vorinostat; first compound 0.01581 µM) | relative viability (Afatinib + Vorinostat; first compound 0.05 µM) | relative viability (Afatinib + Vorinostat; first compound 0.1581 µM) | relative viability (Afatinib + Vorinostat; first compound 0.5 µM) | relative viability (Afatinib + Olaparib; first compound 0.005 µM) | relative viability (Afatinib + Olaparib; first compound 0.01581 µM) | relative viability (Afatinib + Olaparib; first compound 0.05 µM) | relative viability (Afatinib + Olaparib; first compound 0.1581 µM) | relative viability (Afatinib + Olaparib; first compound 0.5 µM)
LCLC-103H | 1.09 | 0.943 | 1.02 | 0.99 | 0.99 | 0.485 | 0.478 | 0.514 | 0.492 | 0.48 | 0.809 | 0.817 | 0.703 | 0.732 | 0.704 | 0.743 | 0.744 | 0.764 | 0.682 | 0.773
LK-2 | 0.6 | 0.589 | 0.742 | 0.478 | 0.666 | 0.33 | 0.229 | 0.239 | 0.326 | 0.248 | 0.349 | 0.269 | 0.277 | 0.2 | 0.382 | 0.705 | 0.591 | 0.725 | 0.766 | 0.79
LOU-NH91 | 0.527 | 0.551 | 0.58 | 0.534 | 0.591 | 0.371 | 0.424 | 0.393 | 0.433 | 0.418 | 0.742 | 0.776 | 0.837 | 0.748 | 0.848 | 0.701 | 0.704 | 0.701 | 0.687 | 0.742
LU99A | 0.509 | 0.562 | 0.488 | 0.453 | 0.477 | 0.158 | 0.192 | 0.18 | 0.206 | 0.181 | 0.467 | 0.61 | 0.487 | 0.419 | 0.502 | 0.253 | 0.266 | 0.249 | 0.248 | 0.264
LXF-289 | 1 | 0.927 | 0.947 | 0.851 | 0.947 | 0.909 | 0.88 | 0.843 | 0.879 | 0.824 | 0.762 | 0.678 | 0.748 | 0.753 | 0.716 | 1.12 | 1.06 | 1.09 | 1.04 | 1.03
NCI-H23 | 0.601 | 0.628 | 0.584 | 0.523 | 0.486 | 0.667 | 0.609 | 0.586 | 0.704 | 0.567 | 0.787 | 0.589 | 0.615 | 0.619 | 0.591 | 0.331 | 0.303 | 0.37 | 0.291 | 0.333
